Reference: patent US20250041232A1, “MICROSPHERES COMPRISING HIGH-DOSE VARENICLINE, METHOD FOR PREPARING SAME, AND PHARMACEUTICAL COMPOSITION COMPRISING SAME” (AULBIO CO., LTD., priority 2021, published 2025)

Test: Measurement of varenicline loading amount and encapsulation efficiency in microspheres (HPLC)
Assay type: physicochemical
Conditions: microspheres dissolved in acetonitrile/80% methanol, HPLC-UV
Method: About 10 mg of the microspheres prepared in Example 2 and Comparative Examples 1 and 2 were taken, placed in a 20 mL flask, and completely dissolved in 2 mL of acetonitrile (manufacturer: Honeywell). It was adjusted to the mark with 80% methanol (manufacturer: Honeywell) and filtered through a 0.45 μm syringe filter. This solution was detected with an ultraviolet-visible spectrophotometer using HPLC (equipment name: Agilent). L1 (inner diameter 4.6 mm×150 mm, thickness 5 μm) was used as the column.

In the case of varenicline pamoate salt, the “Encapsulation efficiency (%)” value is reported as “more than 90%”.
